From paper PMC7321103, “In Vitro Metabolic Transformation of Pharmaceuticals by Hepatic S9 Fractions from Common Carp (Cyprinus carpio)” (Molecules, 2020)
Like-named read-outs stand apart in the source and are kept apart here. Blank lines part the entries; values can stand above or below the molecule they belong to.

Legend:
[1] = system: common carp hepatic S9 fraction; assay: Metabolite formation in common carp hepatic S9 fraction (not induced and BNF induced); type: in vitro ADME, common carp (Cyprinus carpio); settings: for Metabolites Concentration, BNF Fish S9: carp induced with 50 mg/kg BNF; for Metabolites Concentration, BNF Fish S9 / Metabolites Concentration, Fish S9: 2 µM parent pharmaceutical, 1 h, 21 °C; for Metabolites Concentration, Fish S9: not induced carp, 1 mg protein
Experimental: Fish. Fish were collected from a fishpond with a low concentration level of pharmaceuticals (305-880 ng/POCIS). Thus, fish were stocked in the pond for 1 year with a natural photoperiod. The fish were allowed to eat and swim freely in the pond without interaction with humans and avoiding stress conditions. In total, 1-year-old common […] = 12) weighing 695 ± 116 g (mean ± standard deviation) and length 330 ± 19 mm were collected during spring 2018. Additionally, β-naphtaflavone (BNF) was administrated into four fish at levels of 50 mg/kg of BNF in corn oil. Following administration, individuals were kept in a separate aquaria for 48 h, in order to achieve CYP1A1 induction. The fish were then sacrificed according to the ethical rules of the EU harmonized Animal Welfare Act of the Czech Republic. The unit is licensed (No. 53100/2013-MZE-17214), according to the Czech National Directive (the Law against Animal Cruelty, No. 246/1992). Before sampling, fish were anesthetized in an ice bath, and their spinal cords were immediately cut. Fish was bloodless and hepatic tissues were collected and stored at -80 °C before use for the preparation of S9 fraction. Hepatic tissue (approx. 1.2 g) of twelve individual common […] two individual sheep were homogenized in 10 mM Tris-HCl buffer, pH 7.4, containing 250 mM sucrose separately using an T-25 Ultra Turrax homogenizer Ika (Staufen, Germany) followed by centrifugation at 10,000× g for 15 min at 4 °C to obtain S9 fractions. The protein concentration in S9 fractions was determined by the colorimetric method according to Smith et al. at 595 nm. The S9 fractions were diluted to 10 mg/mL protein content. To account for the gender effect, four piscine S9 fractions were combined in one pool with the same ratio of males/females (1:1). The incubations were performed using three S9 pools from common carp. One pool was prepared from ovine S9 fractions. […] According to Hou et al. […] The concentrations of the parent compound and its main metabolites (metoprolol acid, N-desmethylcitalopram, norsertraline, and O-desmethylvenlafaxine) were determined by LC HRMS (Thermo Fisher Scientific, San Jose, CA, USA). The chromatographic separation was performed on a Hypersil Gold aQ analytical column (50 × 2.1 mm; 5 μm particles, Thermo Fisher Scientific). […] A heated electrospray ionization (HESI) source was used for the ionization of the target compounds with a spray voltage of 3.5 kV and nitrogen as the sheath gas (40 arbitrary units), auxiliary gas (10 arbitrary units), and collision gas. The full scan mode with high resolution (70000 FWHM) in range 100-750 m/z was used with the AGC target 3e6, and the maximum filling time 50 ms. Data acquisition was performed with Xcalibur 4.3 Software, and data processing was performed using TraceFinder 3.3 Software (both Thermo Fisher Scientific, San Jose, CA, USA). Internal standard and matrix matching standard methods were used for the quantification of target analytes.

[2] = Control incubation of pharmaceutical without S9 fraction; settings: 2 µM parent pharmaceutical, no S9, 1 h
Experimental: To investigate the formation of metabolites, one concentration of pharmaceutical (2 μM) was incubated with 1 mg of protein in piscine or ovine S9 fraction, 1 mM NADPH, and 0.3 mM UDPGA in a potassium phosphate buffer (50 mM, 7.4 pH) (Table 2). The total volume of each incubation was 0.5 mL. The incubation mixture was vortexed and incubated for 1 h in a water bath (at 21 °C for fish and 37 °C for ovine). Then, the reaction was stopped by the addition of 0.5 mL ice-cold methanol, vortexed, and centrifuged at 10,000× g for 10 min. […] Sheep hepatic S9 fraction was used as a positive control, because sheep S9 fractions are known to metabolise the studied compounds. […] The supernatant was filtrated (0.45 μm regenerated cellulose filter) and the internal standard for chemical analyses was added. […] S9 fractions with TNBP were incubated under the same conditions as other pharmaceuticals.

human hepatic microsomes = system: human hepatic microsomes; set-up: method as in PMID 10494454; settings: cited from earlier work
[3] = Kinetics of N-desmethylcitalopram formation from citalopram in common carp S9; type: in vitro ADME, common carp (Cyprinus carpio); settings: common carp (Cyprinus carpio), hepatic S9 fraction, Michaelis-Menten fit, citalopram 0.01-100 μM
Experimental: (§1) Kinetic analysis using multiple substrate concentrations was conducted only with citalopram using the same procedure as above-described. The substrate concentrations were 0.01, 0.03, 0.1, 1, 10, 50, 75, and 100 μM of citalopram.
(§2) The data were analyzed using non-linear regression analysis (GraphPad Prism version 4.0 for Windows, GraphPad Software, San Diego, CA, USA). The data were fitted to the Michaelis-Menten equation and two enzyme models. The goodness of fit was assessed by comparison of the coefficient of determination (r^2). Visual analysis of Eadie-Hofstee plots was used to estimate whether one or more enzymes participate in the reaction.

[4] = system: common carp hepatic S9 fraction; assay: as above; type: in vitro ADME, common carp (Cyprinus carpio); settings: Michaelis-Menten fit, citalopram 0.01-100 μM
Experimental: as §1, §2

[5] = system: sheep hepatic S9 fraction; assay: Metabolite formation in sheep hepatic S9 fraction; type: in vitro ADME; settings: 2 µM parent pharmaceutical, 1 mg protein, 1 h, 37 °C
Experimental: Sheep. Hepatic tissue from one male and one female Suffolk sheep (age, 2 years; weight 70-80 kg) were collected at a slaughterhouse in Vodňany town, Czech Republic, and stored at -80 °C. Sheep is a relatively new animal model, which has started to be used in veterinarian investigations related to drug-drug interactions, as well as for effective therapy and the limitation of drug-resistance development. Sheep phase I biotransformation enzymes, including CYPs-dependent metabolic activities in sheep liver, were already characterized by Szotakova et al., Maté et al. and Stuchlíková et al.. The use of the S9 fraction from sheep hepatic tissue could represent the mammalian metabolic system in relation to selected pharmaceuticals. […] The protein concentration in S9 fractions was determined by the colorimetric method according to Smith et al. at 595 nm. […] The concentrations of the parent compound and its main metabolites (metoprolol acid, N-desmethylcitalopram, norsertraline, and O-desmethylvenlafaxine) were determined by LC HRMS (Thermo Fisher Scientific, San Jose, CA, USA). […] Internal standard and matrix matching standard methods were used for the quantification of target analytes.

[6] = set-up: method as in PMID 29729738; settings: fish from pond receiving WWTP water; cited from earlier work
CYP1A1 = assay: Inhibition of N-desmethylcitalopram formation by ellipticine in common carp S9; type: biochemical, common carp (Cyprinus carpio); settings: citalopram 5 μM
Experimental: Ellipticine (a specific inhibitor of mammalian and piscine CYP1A1) was used to investigate if CYP1A1 was responsible for metabolite formation. Incubations were performed only with citalopram. Three concentrations of ellipticine were used in the final incubations: 0.125, 1.25, and 12.5 μM. The choice of these concentrations was based on the previous results. The degree of inhibition was assessed by comparison of metabolite formation in the presence and absence of inhibitor. The incubation without inhibitor contained the same amount of methanol as in the incubations with inhibitor (0.5% from total incubation volume).

CYP1A = system: CYP1A; set-up: method as in PMID 29704845; settings: rainbow trout microsomal fraction; cited from earlier work
CYP3A-like = system: CYP3A-like; set-up: method as in PMID 29704845; settings: rainbow trout microsomal fraction; cited from earlier work

Structure (SMILES): N[C@H]1CC[C@@H](c2ccc(Cl)c(Cl)c2)c2ccccc21 [Norsertraline, norsertraline]
- Metabolite formation, fold higher in induced fish than in not induced S9 fraction [1]: 1.7 fold

Structure (SMILES): CN(C)CCCC1(c2ccc(F)cc2)OCc2cc(C#N)ccc21 (stereo not shown) [citalopram, Citalopram]
- Vmax of citalopram N-demethylation, first enzyme (human hepatic microsomes; biphasic model): 25 pmol/min/mg
- Vmax of citalopram N-demethylation, second enzyme (human hepatic microsomes; biphasic model): 158 pmol/min/mg
- Km (human hepatic microsomes; biphasic model, read-out: Km of citalopram N-demethylation, first enzyme): 17.3 µM
- Km (human hepatic microsomes; biphasic model, read-out: Km of citalopram N-demethylation, second enzyme): 185 µM
- Average concentration in hepatic tissue of common carp [6]: 3.1 ± 2.9 ng/g wet weight

Structure (SMILES): Cc1c2ccncc2c(C)c2c1[nH]c1ccccc12 [ellipticine]
- Reduction of N-desmethylcitalopram formation (CYP1A1; 0.125 μM ellipticine): 30 ± 10%
- Inhibition of N-desmethylcitalopram formation (CYP1A1; 1.25 μM ellipticine): completely inhibited
- Inhibition of N-desmethylcitalopram formation (CYP1A1; 12.5 μM ellipticine): completely inhibited

Structure (SMILES): COc1ccc(C(CN(C)C)C2(O)CCCCC2)cc1 (stereo not shown) [venlafaxine]
- Effect on EROD activity (CYP1A): did not alter
- Effect on BFCOD activity (CYP3A-like): did not alter

Further lines, with some results ahead:

- Metabolite formation, fold reduction in induced fish vs not induced S9 fraction [1]: 3.4 fold
Structure (SMILES): CC(C)NCC(O)COc1ccc(CC(=O)O)cc1 (stereo not shown) [Metoprolol acid, metoprolol acid]

- Metabolites Concentration, Control (without S9) [2]: <LOQ
- Km [3]: 29.7 ± 4.6 µM
- Metabolites Concentration, Sheep S9 [5]: 2309 pmol/min/mg
- Metabolite formation, fold higher in induced fish than in not induced S9 fraction ([1]; BNF induced vs not induced carp S9): 5.3 fold
- Metabolites Concentration, BNF Fish S9 [1]: 1557 pmol/min/mg
- Metabolites Concentration, Fish S9 [1]: 295 pmol/min/mg
Structure (SMILES): CNCCCC1(c2ccc(F)cc2)OCc2cc(C#N)ccc21 (stereo not shown) [N-desmethylcitalopram]
- Vmax for N-desmethylcitalopram, monophasic model (human hepatic microsomes; monophasic model): 183 to 281 pmol/min/mg
- Vmax of N-desmethylcitalopram formation [4]: 1781 ± 90 pmol/min/mg
- Average concentration in hepatic tissue of common carp [6]: 2.6 ± 1.4 ng/g wet weight

- Metabolites Concentration, Control (without S9) [2]: <LOQ
- Metabolites Concentration, Sheep S9 [5]: 823 pmol/min/mg
- Metabolites Concentration, BNF Fish S9 [1]: <LOQ
- Metabolites Concentration, Fish S9 [1]: <LOQ
Structure (SMILES): CN(C)CC(c1ccc(O)cc1)C1(O)CCCCC1 (stereo not shown) [O-desmethylvenlafaxine]
